The supplement of paper PMC13380429

What was measured:
Settings in all cases: 72 h
Caco-2 [1] = assay: cell viability relative to DMSO; higher = less toxic
Calu-3 [2] = assay: as above
HepG2 [3] = assay: as above
U2OS [4] = assay: as above
Vero E6 [5] = assay: as above
Calu-3 [6] = assay: relative viability EC50 (midpoint between 100% and the lowest measured viability); higher = less toxic
HepG2 [7] = assay: as above
U2OS [8] = assay: as above
Caco-2 [9] = assay: drug sensitivity score (DSS) for viability; higher = more toxic; extreme values may be limits of the assay
Calu-3 [10] = assay: as above
HepG2 [11] = assay: as above
U2OS [12] = assay: as above
Vero E6 [13] = assay: as above
Vero E6 [14] = assay: relative viability EC50 (midpoint between 100% and the lowest measured viability); higher = less toxic
Caco-2 [15] = assay: as above

Compound	cell viability (Caco-2 [1]; 1 nM)	cell viability (Caco-2 [1]; 10 nM)	cell viability (Caco-2 [1]; 100 nM)	cell viability (Caco-2 [1]; 1000 nM)	cell viability (Caco-2 [1]; 10000 nM)	cell viability (Calu-3 [2]; 1 nM)	cell viability (Calu-3 [2]; 10 nM)	cell viability (Calu-3 [2]; 100 nM)	cell viability (Calu-3 [2]; 1000 nM)	cell viability (Calu-3 [2]; 10000 nM)	cell viability (HepG2 [3]; 1 nM)	cell viability (HepG2 [3]; 10 nM)	cell viability (HepG2 [3]; 100 nM)	cell viability (HepG2 [3]; 1000 nM)	cell viability (HepG2 [3]; 10000 nM)	cell viability (U2OS [4]; 1 nM)	cell viability (U2OS [4]; 10 nM)	cell viability (U2OS [4]; 100 nM)	cell viability (U2OS [4]; 1000 nM)	cell viability (U2OS [4]; 10000 nM)	cell viability (Vero E6 [5]; 1 nM)	cell viability (Vero E6 [5]; 10 nM)	cell viability (Vero E6 [5]; 100 nM)	cell viability (Vero E6 [5]; 1000 nM)	cell viability (Vero E6 [5]; 10000 nM)	relative viability EC50 (Calu-3 [6])	relative viability EC50 (HepG2 [7])	relative viability EC50 (U2OS [8])	drug sensitivity score (Caco-2 [9])	drug sensitivity score (Calu-3 [10])	drug sensitivity score (HepG2 [11])	drug sensitivity score (U2OS [12])	drug sensitivity score (Vero E6 [13])	relative viability EC50 (Vero E6 [14])	relative viability EC50 (Caco-2 [15])
Cc1c(NC(=O)OC[C@@H]2COCCN2)cn2ncnc(Nc3ccc4c(cnn4Cc4cccc(F)c4)c3)c12	102%	101%	85.1%	88.2%	69.3%	97.2%	96.4%	92.4%	64.5%	26.4%	89.8%	104%	96%	99.1%	82.2%	96.6%	101%	99.4%	96.3%	79.3%	98.5%	103%	91.7%	84.1%	60.7%	0.988 µM	> 10 µM	> 10 µM	3	8.2	0.5	1.1	3.5	–	–
Cc1cc(F)c(Nc2ncnc3cc(OCc4ccccc4)ccc23)cc1O	101%	96.6%	88.4%	79.4%	74%	104%	95.1%	89.4%	104%	76.9%	105%	95.5%	106%	100%	85.5%	97.9%	101%	96.8%	102%	72.9%	99.9%	103%	99.3%	96.2%	84%	> 10 µM	> 10 µM	–	4	0.6	0.2	0.9	0.7	> 10 µM	–
Cc1oc2ccccc2c1CNC(=O)NCc1cccs1	103%	106%	98.4%	96.9%	96.6%	92.4%	93.4%	96.2%	89.9%	99.3%	–	–	–	–	–	–	–	–	–	–	103%	107%	102%	96.9%	97.9%	> 10 µM	–	–	0	0	–	–	0	> 10 µM	> 10 µM
Cn1cc(/C=C2\C(=O)Nc3cccnc32)c2ccccc21	97.9%	94.4%	95.2%	94%	91.7%	88.6%	114%	102%	109%	122%	–	–	–	–	–	93.9%	98.4%	95.3%	101%	99.5%	96%	97.1%	92.7%	87%	106%	> 10 µM	–	> 10 µM	0	0	–	0	0	> 10 µM	> 10 µM
N#C[C@@H]1C[C@@H]2C[C@@H]2N1C(=O)[C@@H](N)C12CC3CC(CC(O)(C3)C1)C2	101%	98.6%	95.8%	104%	98.2%	98.2%	108%	92.8%	108%	97.7%	–	–	–	–	–	98.5%	102%	93.5%	100%	87.7%	95.5%	104%	97.8%	97.9%	96.6%	> 10 µM	–	> 10 µM	0	0	–	0	0	> 10 µM	> 10 µM
OCCNCCCOc1cccc(Cl)c1Cl [2,3-DCPE]	93.9%	105%	106%	98.7%	69.4%	99.1%	98.6%	98.1%	97.5%	107%	103%	96.1%	89.7%	97.6%	13.3%	105%	101%	100%	101%	18.1%	92.5%	96.1%	103%	97.9%	15.5%	> 10 µM	2.96 µM	3.21 µM	1.5	0	5.1	4.5	5	2.99 µM	–
N#C/C(=C\c1ccc(O)c(O)c1)C(=O)NCc1ccccc1 [AG-490]	95.9%	98.7%	92.5%	92.2%	82.1%	96.7%	103%	92.8%	96.7%	91.6%	96.4%	101%	99.9%	95%	66.6%	94.1%	99.8%	95.8%	103%	95.5%	94.1%	98.2%	98.7%	94.7%	86.6%	> 10 µM	–	> 10 µM	0.7	0	2.4	0	0.2	> 10 µM	> 10 µM
O=C(Nc1cccc(Br)c1)c1cccc(S(=O)(=O)N2CCCCCC2)c1 [AK-7]	90.6%	94.9%	93.5%	92.9%	75.1%	102%	94%	106%	105%	77%	96.7%	103%	99.9%	104%	72.9%	97.7%	92.8%	98.5%	92.8%	86.3%	98.7%	102%	99.4%	100%	94.3%	> 10 µM	–	> 10 µM	1.4	0.6	0.9	0	0	> 10 µM	> 10 µM
COc1ccnc2[nH]cc(C(=O)C(=O)N3CCN(C(=O)c4ccccc4)C[C@H]3C)c12 [BMS-806]	99.3%	99%	96.1%	108%	107%	105%	108%	107%	110%	99.3%	–	–	–	–	–	93.3%	104%	95.1%	105%	100%	107%	102%	102%	105%	99.9%	> 10 µM	–	> 10 µM	0	0	–	0	0	> 10 µM	> 10 µM
O=C(CCCc1ccc(-c2ccccc2F)cc1)Nc1ccc(O)cc1 [CMPD-1]	95.6%	92.4%	97.5%	112%	71.9%	94.2%	105%	99%	88.8%	86.3%	99%	97.8%	107%	99.2%	42.6%	94.9%	99.4%	94.2%	74.8%	36.6%	97.2%	95.3%	99.6%	97.6%	95.5%	> 10 µM	3.08 µM	1.27 µM	0.8	0.8	3.2	6.3	0	> 10 µM	–
O=S(=O)(NCCNC/C=C/c1ccc(Br)cc1)c1cccc2cnccc12 [H-89]	99.9%	103%	98.7%	99.9%	89.6%	79.7%	100%	87.6%	103%	118%	95.5%	96.4%	91.9%	102%	74.7%	101%	96%	102%	97.2%	90.7%	96.8%	97.6%	100%	97%	82.9%	> 10 µM	–	> 10 µM	0	0	0.8	0	0.7	> 10 µM	> 10 µM
CC[C@H]1[C@@H](O)[C@@H]2[C@H](CC[C@]3(C)[C@@H]([C@H](C)CCOS(=O)(=O)O)CC[C@@H]23)[C@@]2(C)CC[C@@H](O)C[C@@H]12 [INT-767]	–	–	–	–	–	110%	107%	108%	105%	99.5%	115%	118%	96.2%	99.4%	111%	102%	98.1%	102%	101%	101%	–	–	–	–	–	> 10 µM	> 10 µM	> 10 µM	–	0	0	0	–	–	–
CCOCOC[C@H](C[C@H](C)C(=O)NO)NC(=O)c1ccc(Oc2ccccc2)cc1 [ONO-4817]	104%	104%	100%	103%	87.6%	92.3%	85.3%	97.6%	95.4%	89.2%	–	–	–	–	–	98.1%	103%	97.1%	104%	92.6%	103%	102%	103%	101%	91.5%	> 10 µM	–	> 10 µM	0	0	–	0	0	> 10 µM	> 10 µM
COc1ccc(-c2sc(NC(=O)C(C)(C)C)nc2C)cc1S(=O)(=O)Nc1ccc(O)cc1 [PI4KIII-beta-inhibitor-1]	95.6%	97%	91.1%	90.7%	74.2%	115%	102%	102%	91.2%	66.9%	105%	103%	101%	90%	87.6%	94.9%	99.6%	96.7%	93.1%	79.1%	102%	96.4%	92.9%	96.1%	88.8%	–	> 10 µM	> 10 µM	1.8	2.8	0.5	1.1	0	> 10 µM	–
CC(C)(C)n1nc(-c2ccc(Cl)cc2)c2c(N)ncnc21 [PP-2]	92.3%	98.6%	100%	88.2%	54.2%	104%	104%	84.9%	87%	37%	107%	98%	92.6%	103%	90.7%	93.4%	98.4%	96.7%	89.7%	77.3%	99.4%	93.5%	102%	95.6%	47%	1.77 µM	> 10 µM	> 10 µM	4.2	5.4	0	1.4	3.5	2.49 µM	–
